# Data published in PMC8740778, “Translational Pharmacokinetic–Pharmacodynamic Modeling of NaV1.7 Inhibitor MK-2075 to Inform Human Efficacious Dose” (Frontiers in Pharmacology, 2021).
# Marks after values point to notes of the source that are not given here.
# What was measured:
# [1] = trough plasma concentration just prior to patient-controlled subsequent dose; postoperative pain; ref Dahlstrom et al., 1982 (morphine), Lehmann et al., 1990 (tramadol); cited from earlier work
# BALB/c male mice = assay: Mouse tail flick latency; type: in vivo; settings: at clinical efficacious concentrations
# [2] = set-up: method as in Rothenberg et al., 2019; settings: healthy volunteers; no exposure-related pattern; ref Rothenberg et al., 2019; cited from earlier work
Structure (SMILES),"Clinical MEC, mean (range) [1]",Percent of the maximum possible effect in mouse tail flick latency (BALB/c male mice),Hyposmia (reduced sense of smell) in clinical study [2]
COc1cccc(C2(O)CCCCC2CN(C)C)c1 (centres unmarked) [Tramadol],1.092 (0.077–3.744) ^c µM,approximately 50%,
O=C(NS(=O)(=O)N1CCC1)c1cc(C2CC2)c(OCC23CC4CC(CC(C4)C2)C3)cc1F [GDC-0276],,,a couple of incidents of hyposmia were reported
CN1CC[C@]23c4c5ccc(O)c4O[C@H]2[C@@H](O)C=C[C@H]3[C@H]1C5 [Morphine],0.074 (0.032–0.116) ^b µM,approximately 50%,
